Experimental data: publication PMC5218480 (PLoS ONE, 2017)

Test system: MV-4-11 cells
Assay: Gene expression microarray analysis (Affymetrix PrimeView) and GSEA
Type: cell-based, human
Set-up: RFU PODN (11730768_x_at) / Fold change /veh PODN (11730768_x_at) / RFU LINC00158 (11744669_a_at) / Fold change /veh LINC00158 (11744669_a_at) / RFU DUSP10 (11751237_a_at) / Fold change /veh DUSP10 (11751237_a_at) / RFU ID3 (11757404_x_at) / Fold change /veh ID3 (11757404_x_at) / RFU PLEKHG5 (11737974_s_at) / Fold change /veh PLEKHG5 (11737974_s_at) / RFU LRRC4B (11730491_at) / Fold change /veh LRRC4B (11730491_at) / RFU GIMAP4 (11747438_a_at) / Fold change /veh GIMAP4 (11747438_a_at) / RFU KRT8 (11758183_x_at) / Fold change /veh KRT8 (11758183_x_at) / RFU CNN1 (11734310_a_at) / Fold change /veh CNN1 (11734310_a_at) / RFU VPS37D (11726825_at) / Fold change /veh VPS37D (11726825_at) / RFU C10orf10 (11716522_x_at) / Fold change /veh C10orf10 (11716522_x_at) / RFU KIR2DL2 /// KIR2DL4 /// KIR2DL5A /// KIR2DL5B /// KIR2DS1 /// KIR2DS2 /// KIR2DS3 /// KIR2DS4 /// KIR3DL3 /// KIR3DL3 /// KIR3DS1 (11738374_at) / Fold change /veh KIR2DL2 /// KIR2DL4 /// KIR2DL5A /// KIR2DL5B /// KIR2DS1 /// KIR2DS2 /// KIR2DS3 /// KIR2DS4 /// KIR3DL3 /// KIR3DL3 /// KIR3DS1 (11738374_at) / RFU C1QL1 (11718748_at) / Fold change /veh C1QL1 (11718748_at) / RFU TMPRSS4 (11747572_a_at) / Fold change /veh TMPRSS4 (11747572_a_at) / RFU HAMP (11756126_x_at) / Fold change /veh HAMP (11756126_x_at) / RFU RNFT2 (11725882_a_at) / Fold change /veh RNFT2 (11725882_a_at) / RFU NR4A2 (11747474_a_at) / Fold change /veh NR4A2 (11747474_a_at) / RFU ABCC12 (11746883_a_at) / Fold change /veh ABCC12 (11746883_a_at) / RFU TMEM136 (11760407_x_at) / Fold change /veh TMEM136 (11760407_x_at) / RFU CLDN22 /// WWC2 (11732394_at) / Fold change /veh CLDN22 /// WWC2 (11732394_at) / RFU HLA-DPB1 (11760878_x_at) / Fold change /veh HLA-DPB1 (11760878_x_at) / RFU SPINT1 (11716480_a_at) / Fold change /veh SPINT1 (11716480_a_at) / RFU GAP43 (11754022_s_at) / Fold change /veh GAP43 (11754022_s_at) / RFU A4GNT (11735810_at) / Fold change /veh A4GNT (11735810_at) / RFU PRB3 (11715151_x_at) / Fold change /veh PRB3 (11715151_x_at) / RFU TUBB4B (11761932_at) / Fold change /veh TUBB4B (11761932_at) / RFU CAPN14 (11732068_a_at) / Fold change /veh CAPN14 (11732068_a_at) / RFU TMCC2 (11721928_a_at) / Fold change /veh TMCC2 (11721928_a_at) / RFU IRGQ (11745062_a_at) / Fold change /veh IRGQ (11745062_a_at) / RFU FAM174B (11720279_a_at) / Fold change /veh FAM174B (11720279_a_at) / RFU TMPRSS4 (11748680_a_at) / Fold change /veh TMPRSS4 (11748680_a_at) / RFU FAM212B (11763350_a_at) / Fold change /veh FAM212B (11763350_a_at) / RFU PLEKHG5 (11743358_a_at) / Fold change /veh PLEKHG5 (11743358_a_at) / RFU ZSCAN30 (11745921_a_at) / Fold change /veh ZSCAN30 (11745921_a_at) / RFU CMKLR1 (11741424_a_at) / Fold change /veh CMKLR1 (11741424_a_at) / RFU LOC101060620 /// MAPK8IP1 (11723275_at) / Fold change /veh LOC101060620 /// MAPK8IP1 (11723275_at) / RFU SPTSSB (11747773_x_at) / Fold change /veh SPTSSB (11747773_x_at) / RFU PRSS12 (11739890_at) / Fold change /veh PRSS12 (11739890_at) / RFU BIN1 (11741810_x_at) / Fold change /veh BIN1 (11741810_x_at) / RFU WNT11 (11732464_a_at) / Fold change /veh WNT11 (11732464_a_at) / RFU C10orf10 (11716521_a_at) / Fold change /veh C10orf10 (11716521_a_at) / RFU C5orf56 (11738089_at) / Fold change /veh C5orf56 (11738089_at) / RFU CYB561 (11721691_x_at) / Fold change /veh CYB561 (11721691_x_at) / RFU ANKRD19P (11752326_a_at) / Fold change /veh ANKRD19P (11752326_a_at) / RFU OR2T12 /// OR2T33 /// OR2T8 (11738714_s_at) / Fold change /veh OR2T12 /// OR2T33 /// OR2T8 (11738714_s_at) / RFU VCAN (11748164_a_at) / Fold change /veh VCAN (11748164_a_at) / RFU JSRP1 (11732532_at) / Fold change /veh JSRP1 (11732532_at) / RFU KRTAP10-11 (11738290_x_at) / Fold change /veh KRTAP10-11 (11738290_x_at) / RFU MYO3A (11730013_a_at) / Fold change /veh MYO3A (11730013_a_at) / RFU EBF3 (11725865_a_at) / Fold change /veh EBF3 (11725865_a_at) / RFU CAMK2N1 (11719241_x_at) / Fold change /veh CAMK2N1 (11719241_x_at) / RFU C5orf56 (11738088_a_at) / Fold change /veh C5orf56 (11738088_a_at) / RFU OLFML3 (11715873_a_at) / Fold change /veh OLFML3 (11715873_a_at) / RFU LOC100653217 /// NTM (11731650_a_at) / Fold change /veh LOC100653217 /// NTM (11731650_a_at) / RFU MAPK11 (11762145_a_at) / Fold change /veh MAPK11 (11762145_a_at) / RFU FIZ1 (11724087_x_at) / Fold change /veh FIZ1 (11724087_x_at) / RFU OASL (11726364_x_at) / Fold change /veh OASL (11726364_x_at) / RFU SOX15 (11748057_x_at) / Fold change /veh SOX15 (11748057_x_at) / RFU CD79A (11719716_a_at) / Fold change /veh CD79A (11719716_a_at) / RFU HIST1H1D (11736915_at) / Fold change /veh HIST1H1D (11736915_at) / RFU CASKIN2 (11723855_a_at) / Fold change /veh CASKIN2 (11723855_a_at) / RFU LOC730098 (11760151_x_at) / Fold change /veh LOC730098 (11760151_x_at) / RFU OR4N2 (11742367_at) / Fold change /veh OR4N2 (11742367_at) / RFU PRRT2 (11749266_a_at) / Fold change /veh PRRT2 (11749266_a_at) / RFU SNX32 (11753110_a_at) / Fold change /veh SNX32 (11753110_a_at) / RFU CDHR5 (11726645_a_at) / Fold change /veh CDHR5 (11726645_a_at) / RFU RCAN1 (11760418_a_at) / Fold change /veh RCAN1 (11760418_a_at) / RFU FAM167A (11723789_a_at) / Fold change /veh FAM167A (11723789_a_at) / RFU FAM26E (11764081_at) / Fold change /veh FAM26E (11764081_at) / RFU ISYNA1 (11749810_s_at) / Fold change /veh ISYNA1 (11749810_s_at) / RFU ACY1 (11761880_at) / Fold change /veh ACY1 (11761880_at) / RFU 11764098_at / Fold change /veh 11764098_at / RFU SAMD14 (11745864_x_at) / Fold change /veh SAMD14 (11745864_x_at) / RFU NPB (11741838_a_at) / Fold change /veh NPB (11741838_a_at) / RFU TMPRSS6 (11731388_a_at) / Fold change /veh TMPRSS6 (11731388_a_at) / RFU KRTAP10-2 (11738614_at) / Fold change /veh KRTAP10-2 (11738614_at) / RFU ARHGAP8 /// PRR5-ARHGAP8 (11727945_x_at) / Fold change /veh ARHGAP8 /// PRR5-ARHGAP8 (11727945_x_at) / RFU KRTAP5-7 /// NADSYN1 (11734609_at) / Fold change /veh KRTAP5-7 /// NADSYN1 (11734609_at) / RFU RASL12 (11751679_a_at) / Fold change /veh RASL12 (11751679_a_at) / RFU CDKN2B (11736163_a_at) / Fold change /veh CDKN2B (11736163_a_at) / RFU PRF1 (11729649_at) / Fold change /veh PRF1 (11729649_at) / RFU, ZNF638 /// ZNF638-IT1 / Fold change vs veh, ZNF638 /// ZNF638-IT1 / RFU, PANK3 / Fold change vs veh, PANK3 / RFU, SH3YL1 / Fold change vs veh, SH3YL1 / RFU, ZEB2 / Fold change vs veh, ZEB2 / RFU, NRIP1 / Fold change vs veh, NRIP1 / RFU, PTTG1IP / Fold change vs veh, PTTG1IP / RFU, CAPN2 / Fold change vs veh, CAPN2 / RFU, MED14 / Fold change vs veh, MED14 / RFU, SNORA58 / Fold change vs veh, SNORA58 / RFU, C1orf63 / Fold change vs veh, C1orf63 / RFU, LRRFIP1 / Fold change vs veh, LRRFIP1 / RFU, NDUFAF7 / Fold change vs veh, NDUFAF7 / RFU, SLC12A2 / Fold change vs veh, SLC12A2 / RFU, IBTK / Fold change vs veh, IBTK / RFU, ESF1 / Fold change vs veh, ESF1 / Fold change vs veh, TMEM50B / RFU, TAOK1 / Fold change vs veh, TAOK1 / RFU, ACBD3 / Fold change vs veh, ACBD3 / RFU, TMA16 / Fold change vs veh, TMA16 / RFU, RWDD3 / Fold change vs veh, RWDD3 / RFU, BCAT1 / Fold change vs veh, BCAT1 / RFU, EDEM3 / Fold change vs veh, EDEM3 / RFU, TMEM33 / Fold change vs veh, TMEM33 / RFU, WDR75 / Fold change vs veh, WDR75 / RFU, AHCTF1 / Fold change vs veh, AHCTF1 / RFU, TFRC / Fold change vs veh, TFRC / RFU, ZDHHC17 / Fold change vs veh, ZDHHC17 / RFU, NOM1 / Fold change vs veh, NOM1 / RFU, ARL8B / Fold change vs veh, ARL8B / RFU, ZBTB11 / Fold change vs veh, ZBTB11 / RFU, TAMM41 / Fold change vs veh, TAMM41 / RFU, KIAA1704 /// LOC100996395 / Fold change vs veh, KIAA1704 /// LOC100996395 / RFU, ING1 / Fold change vs veh, ING1 / RFU, TRMT61B / Fold change vs veh, TRMT61B / RFU, FUBP3 / Fold change vs veh, FUBP3 / RFU, TP53 / Fold change vs veh, TP53 / RFU, TNKS2 / Fold change vs veh, TNKS2 / RFU, ZFP14 / Fold change vs veh, ZFP14 / RFU, ACTR2 / Fold change vs veh, ACTR2 / RFU, PPP3R1 / Fold change vs veh, PPP3R1 / RFU, PIK3R1 / Fold change vs veh, PIK3R1 / RFU, HNRNPA1 / Fold change vs veh, HNRNPA1 / RFU, RNF170 / Fold change vs veh, RNF170 / RFU, ZNF28 / Fold change vs veh, ZNF28 / RFU, RNGTT / Fold change vs veh, RNGTT / RFU, OGT / Fold change vs veh, OGT / RFU, BRD1 / Fold change vs veh, BRD1 / RFU, MARS / Fold change vs veh, MARS / RFU, ZNF655 / Fold change vs veh, ZNF655 / RFU, FAHD1 / Fold change vs veh, FAHD1 / RFU, BDP1 / Fold change vs veh, BDP1 / RFU, LRRCC1 / Fold change vs veh, LRRCC1 / RFU, ARID1A / Fold change vs veh, ARID1A / RFU, ZNF146 / Fold change vs veh, ZNF146 / RFU, ZNF330 / Fold change vs veh, ZNF330 / RFU, GPN3 / Fold change vs veh, GPN3 / RFU, C9orf123 / Fold change vs veh, C9orf123 / RFU, N4BP2L2 / Fold change vs veh, N4BP2L2 / RFU, ARFIP1 / Fold change vs veh, ARFIP1 / RFU, FAM179B / Fold change vs veh, FAM179B / RFU, BCL10 / Fold change vs veh, BCL10 / RFU, UHRF1BP1L / Fold change vs veh, UHRF1BP1L / RFU, BET1 / Fold change vs veh, BET1 / RFU, CNOT2 / Fold change vs veh, CNOT2 / RFU, ZNF268 / Fold change vs veh, ZNF268 / Fold change vs veh, ZNF507 / RFU, DGCR2 / Fold change vs veh, DGCR2 / RFU, WDSUB1 / Fold change vs veh, WDSUB1 / Fold change vs veh, HSP90B1 /// MIR3652 / RFU, ADSS / Fold change vs veh, ADSS / RFU, GK / Fold change vs veh, GK / RFU, ZNF148 / Fold change vs veh, ZNF148 / RFU, TAF9 / Fold change vs veh, TAF9 / RFU, SLC1A5 / Fold change vs veh, SLC1A5 / RFU, SLMO2 / Fold change vs veh, SLMO2 / RFU, ABCC4 / Fold change vs veh, ABCC4 / RFU, LOC101060439 /// RAP1B / Fold change vs veh, LOC101060439 /// RAP1B / RFU, RFX7 / Fold change vs veh, RFX7 / RFU, GTPBP10 / Fold change vs veh, GTPBP10 / RFU, CNEP1R1 / Fold change vs veh, CNEP1R1 / RFU, BIVM-ERCC5 /// ERCC5 / Fold change vs veh, BIVM-ERCC5 /// ERCC5 / RFU, ILF3 / Fold change vs veh, ILF3 / RFU 11762660_at / Fold change /veh 11762660_at / RFU VCAN (11757783_s_at) / Fold change /veh VCAN (11757783_s_at) / RFU DDX43 (11728927_at) / Fold change /veh DDX43 (11728927_at) / RFU KRT8 (11758188_x_at) / Fold change /veh KRT8 (11758188_x_at) / RFU NKD1 (11759106_at) / Fold change /veh NKD1 (11759106_at) / RFU SRD5A1 (11742802_a_at) / Fold change /veh SRD5A1 (11742802_a_at) / RFU TPSAB1 /// TPSB2 (11721975_s_at) / Fold change /veh TPSAB1 /// TPSB2 (11721975_s_at) / RFU GSTM3 (11746129_a_at) / Fold change /veh GSTM3 (11746129_a_at) / RFU IL23R (11737362_x_at) / Fold change /veh IL23R (11737362_x_at) / RFU TMEM51 (11727254_a_at) / Fold change /veh TMEM51 (11727254_a_at) / RFU PIWIL2 (11732686_x_at) / Fold change /veh PIWIL2 (11732686_x_at) / RFU ORM1 (11744905_x_at) / Fold change /veh ORM1 (11744905_x_at) / RFU CCDC152 (11743942_at) / Fold change /veh CCDC152 (11743942_at) / RFU ECM1 (11717891_a_at) / Fold change /veh ECM1 (11717891_a_at) / RFU IL23R (11748794_a_at) / Fold change /veh IL23R (11748794_a_at) / RFU TNFAIP8L3 (11732012_x_at) / Fold change /veh TNFAIP8L3 (11732012_x_at) / RFU MBOAT4 (11741988_at) / Fold change /veh MBOAT4 (11741988_at) / RFU 11764193_at / Fold change /veh 11764193_at / RFU TMEM53 (11763286_at) / Fold change /veh TMEM53 (11763286_at) / RFU MAGEB2 (11727129_at) / Fold change /veh MAGEB2 (11727129_at) / RFU TMEM200A (11744735_a_at) / Fold change /veh TMEM200A (11744735_a_at) / RFU CCDC152 (11751479_a_at) / Fold change /veh CCDC152 (11751479_a_at) / RFU FAM211A (11726209_a_at) / Fold change /veh FAM211A (11726209_a_at) / RFU RGS16 (11746705_a_at) / Fold change /veh RGS16 (11746705_a_at) / RFU VCAN (11755009_s_at) / Fold change /veh VCAN (11755009_s_at) / RFU RHOB (11743442_s_at) / Fold change /veh RHOB (11743442_s_at) / RFU RGS16 (11720943_a_at) / Fold change /veh RGS16 (11720943_a_at) / RFU RGS16 (11720944_at) / Fold change /veh RGS16 (11720944_at) / RFU, VPS4B / Fold change vs veh, VPS4B / RFU, CREB1 / Fold change vs veh, CREB1 / RFU, DNAJC13 / Fold change vs veh, DNAJC13 / RFU, GNAQ / Fold change vs veh, GNAQ / RFU, CDK5R1 / Fold change vs veh, CDK5R1 / RFU, ZRANB3 / Fold change vs veh, ZRANB3 / RFU, CUL4A / Fold change vs veh, CUL4A / RFU, CCNY / Fold change vs veh, CCNY / RFU, UFL1 / Fold change vs veh, UFL1 / RFU, COG3 / Fold change vs veh, COG3 / RFU, DIAPH2 / Fold change vs veh, DIAPH2 / RFU, SKA2 / Fold change vs veh, SKA2 / RFU, AFF3 / Fold change vs veh, AFF3 / RFU, LMF1 / Fold change vs veh, LMF1 / RFU, IPO11 / Fold change vs veh, IPO11 / RFU, DFFB / Fold change vs veh, DFFB / RFU, FOXP1 / Fold change vs veh, FOXP1 / RFU, CARD8 / Fold change vs veh, CARD8 / RFU, STRN3 / Fold change vs veh, STRN3 / RFU, ADK / Fold change vs veh, ADK / RFU, RASSF2 / Fold change vs veh, RASSF2 / RFU, WIPF1 / Fold change vs veh, WIPF1 / RFU, LARP1B / Fold change vs veh, LARP1B / RFU, RASA1 / Fold change vs veh, RASA1 / RFU, RB1 / Fold change vs veh, RB1 / RFU, PPFIA1 / Fold change vs veh, PPFIA1 / RFU, MAT2A / Fold change vs veh, MAT2A / RFU, CCT5 / Fold change vs veh, CCT5 / RFU, WDR92 / Fold change vs veh, WDR92 / RFU, CUX1 / Fold change vs veh, CUX1 / RFU, TTC7A / Fold change vs veh, TTC7A / RFU, TMEM135 / Fold change vs veh, TMEM135 / RFU, DEPTOR / Fold change vs veh, DEPTOR / RFU, CPM / Fold change vs veh, CPM / RFU, DNAJB6 / Fold change vs veh, DNAJB6 / RFU, CACNA2D3 / Fold change vs veh, CACNA2D3 / RFU, DTX4 / Fold change vs veh, DTX4 / RFU, TFCP2 / Fold change vs veh, TFCP2 / RFU, GMCL1 /// GMCL1P1 / Fold change vs veh, GMCL1 /// GMCL1P1 / RFU, AEBP2 / Fold change vs veh, AEBP2 / RFU, SNHG1 /// SNORD22 /// SNORD25 /// SNORD26 /// SNORD27 /// SNORD28 /// SNORD29 /// SNORD31 / Fold change vs veh, SNHG1 /// SNORD22 /// SNORD25 /// SNORD26 /// SNORD27 /// SNORD28 /// SNORD29 /// SNORD31 / Fold change (Aza/veh), C12orf56 (ProbeSet 11735607_a_at) / Fold change (ACY-1035/veh), C12orf56 (ProbeSet 11735607_a_at) / Fold change (Aza/veh), FGFR1OP (ProbeSet 11751329_s_at) / Fold change (ACY-1035/veh), FGFR1OP (ProbeSet 11751329_s_at) / Fold change (Aza/veh), VPS36 (ProbeSet 11739960_a_at) / Fold change (ACY-1035/veh), VPS36 (ProbeSet 11739960_a_at) / RFU SYPL1 (11715823_x_at) / Fold change /veh SYPL1 (11715823_x_at) / RFU IGFBP7 (11715501_s_at) / Fold change /veh IGFBP7 (11715501_s_at) / RFU REEP3 (11722064_at) / Fold change /veh REEP3 (11722064_at) / RFU IGLL1 (11728026_x_at) / Fold change /veh IGLL1 (11728026_x_at): dose or concentration left out as unconfirmed
Details: ProbeSet 11724877_a_at; LIST D

Structure (SMILES): Nc1ncn([C@@H]2O[C@H](CO)[C@@H](O)[C@H]2O)c(=O)n1 [azacitidine]
- Fold change vs veh, AEBP2: 0.82
